Calls of active or inactive are those of the source.
Columns and labels:
[1] = growth suppression of PTEN-null colon cells, dose response, cell-based, HCT116 PTEN knockout (AID 1047); format: functional;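 further: HCT116 colon tumor cells with PTEN knocked out; cells exposed to compound for 60 hours before readout; potency for loss of cell viability measured by luminescence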
[2] = growth suppression of beta-catenin-knockout colon cells, dose response, cell-based, HCT116, human colon tumor (AID 1045); format: functional;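 further: HCT116 colon tumor cells with beta catenin knocked out; cells exposed to compound for 60 hours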
H9c2 = assay: cells; format: functional, cell-based; conditions: Rattus norvegicus, H9c2, Myocardium;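 further: confirmatory concentration-response retest of ultra-high-throughput screening hits for modulation of myocardial damage; cell death induced by hydrogen peroxide oxidative stress; compound pretreatment for 60 min then peroxide exposure for 2 h; potency is for protecting the cells against peroxide damage rather than for killing them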
cells [3] = format: functional, cell-based
cells [4] = format: functional, cell-based; remark: listed apart in the source
[5] = molecular target: FAD-linked sulfhydryl oxidase ALR (Homo sapiens, UniProt P55789); assay: inhibitors of human ALR sulfhydryl oxidase, dose response, biochemical, H2O2 detection, luminescence, cherry-pick (AID 493248)
FAD-linked sulfhydryl oxidase ALR, sequence (P55789 whole entry): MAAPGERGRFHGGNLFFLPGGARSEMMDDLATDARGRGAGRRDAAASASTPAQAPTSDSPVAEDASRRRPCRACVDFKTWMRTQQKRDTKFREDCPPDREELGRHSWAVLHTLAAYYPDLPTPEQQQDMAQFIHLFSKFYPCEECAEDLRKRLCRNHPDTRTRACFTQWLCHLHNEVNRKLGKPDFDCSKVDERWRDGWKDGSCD

[6] = C. albicans growth with fluconazole, confirmation, fluorescence, retest (AID 2467); format: functional, cell-based
[7] = NIH-3T3 fibroblast cytotoxicity, dose response, cytotoxicity control, cell-based, fluorescence, Alamar Blue, secondary assay (AID 2327); format: functional;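 further: NIH-3T3 mouse fibroblasts cultured with fluconazole at 8 µg/mL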
Cytochrome P450 3A4 = Cytochrome P450 3A4 (Homo sapiens, UniProt P08684);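 further: CYP3A4 tested as one member of a cytochrome P450 panel screen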
Cytochrome P450 3A4, sequence (P08684 whole entry): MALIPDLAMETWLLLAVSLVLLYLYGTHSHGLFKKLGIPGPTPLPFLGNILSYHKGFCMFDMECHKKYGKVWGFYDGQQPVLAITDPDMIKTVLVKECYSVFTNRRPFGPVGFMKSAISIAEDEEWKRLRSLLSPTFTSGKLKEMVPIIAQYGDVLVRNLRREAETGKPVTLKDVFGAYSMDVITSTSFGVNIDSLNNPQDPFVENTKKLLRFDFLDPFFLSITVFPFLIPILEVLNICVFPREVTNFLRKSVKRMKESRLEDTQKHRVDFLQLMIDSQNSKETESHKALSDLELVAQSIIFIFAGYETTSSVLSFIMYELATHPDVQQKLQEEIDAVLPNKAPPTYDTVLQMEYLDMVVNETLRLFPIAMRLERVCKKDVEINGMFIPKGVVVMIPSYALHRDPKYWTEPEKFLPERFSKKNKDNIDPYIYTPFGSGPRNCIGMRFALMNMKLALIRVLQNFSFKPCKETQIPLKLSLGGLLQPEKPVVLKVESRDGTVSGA

Cytochrome P450 1A2 = molecular target: T1, Cytochrome P450 1A2 (Homo sapiens, UniProt P05177);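 further: PubChem cytochrome P450 panel assay, CYP1A2 panel member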
T1 sequence (P05177 whole entry): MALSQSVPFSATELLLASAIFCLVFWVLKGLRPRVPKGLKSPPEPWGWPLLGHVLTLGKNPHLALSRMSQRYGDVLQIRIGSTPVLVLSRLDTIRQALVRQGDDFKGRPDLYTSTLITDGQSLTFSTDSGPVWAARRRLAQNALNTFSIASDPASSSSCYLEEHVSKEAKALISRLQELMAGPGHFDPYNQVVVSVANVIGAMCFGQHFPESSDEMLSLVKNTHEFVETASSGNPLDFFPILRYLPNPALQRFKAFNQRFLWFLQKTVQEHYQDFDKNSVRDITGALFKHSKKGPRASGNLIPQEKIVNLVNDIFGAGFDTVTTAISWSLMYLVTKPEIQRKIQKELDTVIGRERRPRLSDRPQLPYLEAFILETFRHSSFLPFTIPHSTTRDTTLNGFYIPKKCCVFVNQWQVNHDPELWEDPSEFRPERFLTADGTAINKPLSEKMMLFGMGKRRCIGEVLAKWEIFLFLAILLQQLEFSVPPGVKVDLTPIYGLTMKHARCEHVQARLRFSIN

Cytochrome P450 2C9 = Cytochrome P450 2C9 (Homo sapiens, UniProt P11712)
Cytochrome P450 2C9, sequence (P11712 whole entry): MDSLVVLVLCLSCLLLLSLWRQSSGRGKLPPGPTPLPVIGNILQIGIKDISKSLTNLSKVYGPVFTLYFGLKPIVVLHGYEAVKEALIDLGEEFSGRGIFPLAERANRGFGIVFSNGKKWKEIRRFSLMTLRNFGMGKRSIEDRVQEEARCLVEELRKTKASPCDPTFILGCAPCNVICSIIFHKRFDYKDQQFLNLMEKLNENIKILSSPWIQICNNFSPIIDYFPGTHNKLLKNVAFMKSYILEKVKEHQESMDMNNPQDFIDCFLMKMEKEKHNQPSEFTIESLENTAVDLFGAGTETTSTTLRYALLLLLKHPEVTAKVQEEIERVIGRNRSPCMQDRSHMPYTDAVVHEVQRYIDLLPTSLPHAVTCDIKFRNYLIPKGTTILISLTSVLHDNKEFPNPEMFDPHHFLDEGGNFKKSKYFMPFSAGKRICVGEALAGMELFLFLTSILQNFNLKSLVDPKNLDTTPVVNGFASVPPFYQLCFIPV

Paired box protein Pax-8 = Paired box protein Pax-8 (Homo sapiens, UniProt Q06710); assay: inhibitors of PAX8-driven TPO luciferase reporter, dose response, RMG-I cells, cherry-pick (AID 687027); format: functional, cell-based;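 further: luciferase reporter driven by Pax8 target thyroperoxidase promoter measured by SteadyGlo luminescence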
Paired box protein Pax-8, sequence (Q06710 whole entry): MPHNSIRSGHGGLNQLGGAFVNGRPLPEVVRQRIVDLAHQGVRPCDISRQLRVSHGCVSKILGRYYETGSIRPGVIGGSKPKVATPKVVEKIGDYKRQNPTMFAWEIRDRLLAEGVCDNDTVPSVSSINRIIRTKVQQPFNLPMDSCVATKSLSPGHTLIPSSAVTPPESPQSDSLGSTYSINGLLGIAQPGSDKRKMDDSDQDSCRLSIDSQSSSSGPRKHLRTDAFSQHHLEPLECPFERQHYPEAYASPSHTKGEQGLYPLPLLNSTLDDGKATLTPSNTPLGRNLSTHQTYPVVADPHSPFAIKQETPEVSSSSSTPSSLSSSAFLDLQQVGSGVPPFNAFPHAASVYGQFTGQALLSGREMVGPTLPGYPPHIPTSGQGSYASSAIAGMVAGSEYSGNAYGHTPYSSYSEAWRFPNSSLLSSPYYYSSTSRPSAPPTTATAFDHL

[8] = Luminescence Cell-Based Dose Retest to Confirm Inhibitors of Cancer Stem Cells. [Related pubchem assays (depositor defined):AID2717, AID2721]; format: functional; conditions: Homo sapiens
[9] = microbe, parasite or virus in culture; format: functional; conditions: Mycobacterium tuberculosis

Structure (SMILES): O=C(Nc1ccc(F)cc1)c1cnc(-c2ccccc2)nc1-c1ccccc1
- EC50 [1]: 10 µM (active)
- EC50 [2]: 9.24 µM (active)

Structure (SMILES): Nc1c(C(=O)NC2CCCC2)c2nc3ccccc3nc2n1N
- IC50 (H9c2): > 79 µM (inactive)

Structure (SMILES): COc1ccc(C(=O)CSc2nncn2C)cc1
- EC50 (cells [3]): > 350 µM (not active)
- EC50 (cells [4]): > 350 µM (not active)

Structure (SMILES): CCN(CC)S(=O)(=O)c1cc(-c2nnc(-c3ccc(Br)cc3)o2)ccc1Cl
- EC50 [1]: 28.1 µM (active)
- EC50 [2]: 21.5 µM (active)

Structure (SMILES): COc1ccc(CSC2=NCCN2)cc1Br
- AC50 [5]: 0.007 µM (active)

Structure (SMILES): c1ccc(-c2ccccc2OCCCN2CCCCCC2)cc1
- EC50 [6]: > 38 µM (not active)
- EC50 [7]: > 150 µM (inactive)

Structure (SMILES): N#CCC(=O)Nc1sc2c(c1C(N)=O)CCCC2
- AC50 [5]: 14.4 µM (active)

Structure (SMILES): CCC(=O)Oc1ccc2c(C)cc(=O)oc2c1C
- IC50 (H9c2): 74.2 µM (inactive)

Structure (SMILES): CCn1c(C)cc(/C=C2\SC(=O)N(CC(=O)Nc3ccc(C)c(C)c3)C2=O)c1C
- EC50 [1]: 210 µM (active)
- EC50 [2]: 24.1 µM (active)
- AC50 (Cytochrome P450 3A4): 1 µM (inconclusive)
- AC50 (Cytochrome P450 1A2): 8.91 µM (inconclusive)
- AC50 (Cytochrome P450 2C9): 1.58 µM (inconclusive)

Structure (SMILES): CC(C)[C@H](NC(=O)c1ccco1)C(=O)OCc1cc(=O)n2c(n1)sc1ccccc12
- EC50 (cells [3]): > 350 µM (not active)
- EC50 (cells [4]): > 350 µM (not active)

Structure (SMILES): COc1cc(C(=O)Nc2cc3c(cc2N2CCCCC2)n(C)c(=O)n3C)cc(OC)c1OC
- IC50 (H9c2): 8.81 µM (active)

Structure (SMILES): O=C1CC(NNc2ccccc2)C(=O)N1c1cccc(Cl)c1 (stereo not drawn)
- AC50 [5]: 0.319 µM (active)

Structure (SMILES): Cc1cccc(NC(=O)CC23CC4CC(C2)CC(n2nnc(C)n2)(C4)C3)c1
- AC50 (Paired box protein Pax-8): 37.1 µM (active)

Structure (SMILES): COC(=O)c1ccc(/C=C/c2c(-c3ccsc3)oc3ccc(N4CCOCC4)cc23)cc1
- AC50 [8]: 3.33 µM (active)
- CC50 [9]: > 40 µM (active)

Structure (SMILES): Cc1c(CCC(=O)N[C@@H](C)C(=O)O)c(=O)oc2c(C)c3oc4c(c3cc12)CCCC4
- AC50 [5]: 3.72 µM (active)

Structure (SMILES): c1ccc(CSc2nnc(-c3cccs3)n2Cc2ccco2)cc1
- EC50 [6]: > 38 µM (not active)
- EC50 [7]: > 150 µM (inactive)

Structure (SMILES): CC(OC(=O)COc1ccc(Nc2ccccc2)cc1)C(=O)N(C)c1ccccc1 (stereo not drawn)
- EC50 (cells [3]): > 350 µM (not active)
- EC50 (cells [4]): 30.5 µM (active)

Structure (SMILES): Cc1ccc2c(c1)C1NC(S)=NC(C)(O2)C1C(=O)Nc1ccc(Cl)cc1 (stereo not drawn)
- EC50 (cells [3]): > 350 µM (not active)
- EC50 (cells [4]): > 350 µM (not active)

Structure (SMILES): CCc1ccc(-c2csc3[n+]2CCN3C(C)=O)cc1
- AC50 [5]: 3.62 µM (active)

Structure (SMILES): CCc1cc2c(=O)c(-c3ccc4c(c3)OCCO4)coc2cc1OS(C)(=O)=O
- EC50 [1]: 14.6 µM (active)
- EC50 [2]: 18 µM (active)

Structure (SMILES): CCOCCCNS(=O)(=O)c1ccc(NC(=O)N2c3ccccc3Sc3ccccc32)cc1
- CC50 [9]: 36.6 µM (active)

Structure (SMILES): O=c1[nH]c(=O)n(Cc2ccccc2)c2nc(-c3ccc(Oc4ccc(F)cc4)c([N+](=O)[O-])c3)n(CCO)c12
- EC50 [1]: 7.51 µM (active)
- EC50 [2]: 8.03 µM (active)
- CC50 [9]: 13.9 µM (active)
